Data as given in patent publication US10953099B2, “Compositions comprising a metal source, dithiocarbamate and cyclodextrin” (priority 2016, dated 2021).

Legend:
H209 SCLC cells = test: H209 SCLC tumor relapse model in mice; format: in vivo, nu/nu mice; details: after 6 weeks DKFZ-00608 15 mg/kg daily in 60 mM sulfobutyl ether beta-cyclodextrin
Description: The inventors wanted to compare the efficacy of DKFZ-00608 on human SCLC tumors with standard therapy in vivo. […] Followed by DKFZ-00608 in 60 mM sulfobutyl ether beta-cyclodextrin (15 mg/kg daily) for 6 weeks • DKFZ-00608 in 60 mM sulfobutyl ether beta-cyclodextrin (15 mg/kg daily) for 6 weeks. Tumor sizes were determined 2× per week for the first 9 weeks, thereafter, once per week.

[1] = system: Raji human B-cell lymphoma cells; test: Cell-titer-blue viability, Raji; format: cell-based; details: in presence of sulfobutyl ether-β-cyclodextrin, 72 h
Description: (§1) The anti-tumoral efficacy of a panel of 7 different Au complexes, ATM/Disulfiram, the standard therapeutic Cisplatin and well known antitumoral CuDTC (see Table 2) was tested on Jurkat human T-cell leukemia and Raji human B-cell lymphoma cells. […] 24 h later, test compound were added in the presence of sulfobutyl ether-β-cyclodextrin (30 fold disulfiram concentration) in various dilutions (100-0.01 μM). All concentrations were applied in triplicate. […] The “Factor of Selectivity for T-cell Leukemia” was calculated by division of IC50 on Raji cells/IC50 on Jurkat cells.

[2] = system: Jurkat human T-cell leukemia cells; test: Cell-titer-blue viability, Jurkat; format: cell-based; details: for selectivity for Jurkat IC50 Raji/IC50 Jurkat (Factor of Selectivity for T-cell Leukemia): IC50 on Raji cells/IC50 on Jurkat cells; for IC50: in presence of sulfobutyl ether-β-cyclodextrin, 72 h
Description: as §1

With `CCN(CC)/C1=[SH]/[Au][S]/C(N(CC)CC)=[SH]\[Au][S]1` [DKFZ-00608] the “animals with no palpable tumors” value (H209 SCLC cells) was 6 out of 10.

In the case of `N.N.[Cl][Pt][Cl]` [Cisplatin], the IC50 [1] is reported as 2720 nM, the “selectivity for Jurkat IC50 Raji/IC50 Jurkat (Factor of Selectivity for T-cell Leukemia)” value [2] is reported as 4.45 and the IC50 [2] is reported as 610 nM.

In the case of `CCN(CC)C(=S)[S-].CCN(CC)C(=S)[S-].[Cu+2]` [CuDTC], the IC50 [1] is reported as 20 nM, the “selectivity for Jurkat IC50 Raji/IC50 Jurkat (Factor of Selectivity for T-cell Leukemia)” value [2] is reported as 2.62 and the IC50 [2] is reported as 10 nM.
